Results: PMC9226124, “Macrocycle-stabilization of its interaction with 14-3-3 increases plasma membrane localization and activity of CFTR” (Nature Communications, 2022)
Values joined by “and” are separate entries in the source; they are usually repeats but may differ in a detail not shown here. Equal entries are not always repeated. Where two headings read alike, the source gives them in different places.

What was measured:
[1] = biological target: T1, 14-3-3β/CFTRpS753pS768 complex (Homo sapiens, UniProt P13569+P31946); assay: Dose-response fluorescence polarization (FP) assay, compound titration; assay type: binding; conditions: for EC50: 14-3-3β 10 μM, labeled CFTRpS753pS768 100 nM; for FP signal: With 14-3-3
T1 construct: His6 (cleaved yes); made in house; peptide synthetic
T1 sequence (P31946 whole entry): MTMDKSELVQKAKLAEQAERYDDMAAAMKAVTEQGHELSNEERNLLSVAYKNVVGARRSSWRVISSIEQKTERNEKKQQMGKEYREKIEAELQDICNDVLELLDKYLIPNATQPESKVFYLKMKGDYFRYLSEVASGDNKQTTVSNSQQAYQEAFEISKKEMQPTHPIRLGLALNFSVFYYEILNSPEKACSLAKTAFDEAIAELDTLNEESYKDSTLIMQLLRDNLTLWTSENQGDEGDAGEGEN
T1 sequence (P13569 747-774 limits assumed): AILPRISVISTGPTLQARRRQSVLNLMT
Method: The 14-3-3β concentration used for the FP screening assay was 10 μM (dashed line). c HTS FP assay of the Cyclenium library. The samples contain 100 nM of FITC-CFTR_pS753pS768 peptide, 10 μM 14-3-3β, and 50 μM compound. FC-A (100 µM) was added as a positive control and DMSO as the negative control. Hit compounds are defined as a polarization increase which is higher than 20% of the response of FC-A. Red squares are compounds that appeared positive in the negative control without 14-3-3. […] Background polarization was subtracted from all values, n = 3 technical replicates. Compounds selected for further analysis are indicated with an asterisk. e Polarization in the absence of 14-3-3. […] Source data are provided as a Source Data file. […]
The FITC-labeled peptides were dissolved in FP buffer (10 mM HEPES pH 7.4, 150 mM NaCl, 0.1% Tween20, 1 mg/mL BSA) to a final concentration of 100 nM or 10 nM. For the dose-response assays, a 14-3-3β concentration of 10 μM was used while titrating the compounds in a two-times dilution series and, for the other assays, a dilution series of 14-3-3β was made with constant concentration of compound. The dilution series were made in 384 Corning Black Round Bottom well plates and their polarization was measured with a Tecan Infinite F500 plate reader (ex. = 485 nm, em. = 535 nm). The method of fitting of the curves was: “log(agonist) vs. response – Variable slope (four parameters)” from GraphPad Prism. The equation is Y = Bottom + (Top-Bottom)/(1 + 10^((LogEC50-X)*HillSlope)).

[2] = biological target: T1, 14-3-3β/CFTRpS753pS768 complex; assay: FP assay, 14-3-3β titration at constant compound concentration (apparent KD); assay type: binding
Method: FC-A (100 µM) was added as a positive control and DMSO as the negative control. […] Background polarization was subtracted from all values, n = 3 technical replicates. […] Source data are provided as a Source Data file. […]
The FITC-labeled peptides were dissolved in FP buffer (10 mM HEPES pH 7.4, 150 mM NaCl, 0.1% Tween20, 1 mg/mL BSA) to a final concentration of 100 nM or 10 nM. […] The dilution series were made in 384 Corning Black Round Bottom well plates and their polarization was measured with a Tecan Infinite F500 plate reader (ex. = 485 nm, em. = 535 nm). The method of fitting of the curves was: “log(agonist) vs. response – Variable slope (four parameters)” from GraphPad Prism. The equation is Y = Bottom + (Top-Bottom)/(1 + 10^((LogEC50-X)*HillSlope)).
from the hit validation library.
f the compound, 100 µM FC-A, or both compound and FC-A, 100 µM each. Background polarization was subtracted f
rom all values, n=3 technical replicates.
Source data are provided as a Source Data file.

## N=C(N)NCCCC1NC(=O)C(CCC(N)=O)NC(=O)C(CCCNC(=N)N)NC(=O)C2CCCN2Cc2cccc(c2)-c2ccccc2CNC1=O (stereo not drawn) [CY007455]
[1]; read-out: EC50
  EC50: 170 µM
[1]; compound 476.8 pM
  FP signal: 5
[1]; compound 953.7 pM
  FP signal: 6
[1]; compound 1.90735e-9 M
  FP signal: 3
[1]; compound 3.8147e-9 M
  FP signal: 4
[1]; compound 7.6294e-9 M
  FP signal: 5
[1]; compound 1.52588e-8 M
  FP signal: 4
[1]; compound 3.05176e-8 M
  FP signal: 4
[1]; compound 6.10352e-8 M
  FP signal: 5
[1]; compound 1.2207e-7 M
  FP signal: 7
[1]; compound 2.44141e-7 M
  FP signal: 6
[1]; compound 4.88281e-7 M
  FP signal: 4
[1]; compound 9.76563e-7 M
  FP signal: 4
[1]; compound 1.95313e-6 M
  FP signal: 5
[1]; compound 3.90625e-6 M
  FP signal: 9
[1]; compound 7.8125e-6 M
  FP signal: 8
[1]; compound 1.5625e-5 M
  FP signal: 15
[1]; compound 3.125e-5 M
  FP signal: 26
[1]; compound 6.25e-5 M
  FP signal: 53
[1]; compound 0.000125 M
  FP signal: 107
[1]; compound 0.00025 M
  FP signal: 170
[1]; compound 0.0005 M
  FP signal: 209
[1]; compound 0.001 M
  FP signal: 244
[2]; CY compound (100 μM), 14-3-3β concentration 119.2 pM
  Fluorescence polarization signal, 14-3-3β titration: 1.333
[2]; CY compound (100 μM), 14-3-3β concentration 4.88281e-7 M
  Fluorescence polarization signal, 14-3-3β titration: 8.333 and 7.333
[2]; CY compound (100 μM), 14-3-3β concentration 9.76563e-7 M
  Fluorescence polarization signal, 14-3-3β titration: 12.3333 and 8.333 and 11.3333
[2]; CY compound (100 μM), 14-3-3β concentration 1.95313e-6 M
  Fluorescence polarization signal, 14-3-3β titration: 20.3333 and 17.3333 and 14.3333
[2]; CY compound (100 μM), 14-3-3β concentration 3.90625e-6 M
  Fluorescence polarization signal, 14-3-3β titration: 27.3333 and 24.3333 and 22.3333
[2]; CY compound (100 μM), 14-3-3β concentration 7.8125e-6 M
  Fluorescence polarization signal, 14-3-3β titration: 38.3333 and 32.3333 and 35.3333
[2]; CY compound (100 μM), 14-3-3β concentration 1.5625e-5 M
  Fluorescence polarization signal, 14-3-3β titration: 51.3333 and 50.3333 and 48.3333
[2]; CY compound (100 μM), 14-3-3β concentration 3.125e-5 M
  Fluorescence polarization signal, 14-3-3β titration: 68.3333 and 69.3333 and 65.3333
[2]; CY compound (100 μM), 14-3-3β concentration 6.25e-5 M
  Fluorescence polarization signal, 14-3-3β titration: 92.3333 and 88.3333 and 91.3333
[2]; CY compound (100 μM), 14-3-3β concentration 0.000125 M
  Fluorescence polarization signal, 14-3-3β titration: 110.333 and 109.333
[2]; CY compound (100 μM), 14-3-3β concentration 0.00025 M
  Fluorescence polarization signal, 14-3-3β titration: 128.333 and 124.333 and 127.333
[2]; CY compound (100 μM), 14-3-3β concentration 0.0005 M
  Fluorescence polarization signal, 14-3-3β titration: 152.333 and 149.333
[2]; FC-A + CY compound, 14-3-3β concentration 119.2 pM
  Fluorescence polarization signal, 14-3-3β titration: 2 and 1
[2]; FC-A + CY compound, 14-3-3β concentration 6.10352e-8 M
  Fluorescence polarization signal, 14-3-3β titration: 5 and 6 and 9
[2]; FC-A + CY compound, 14-3-3β concentration 1.2207e-7 M
  Fluorescence polarization signal, 14-3-3β titration: 9 and 7
[2]; FC-A + CY compound, 14-3-3β concentration 2.44141e-7 M
  Fluorescence polarization signal, 14-3-3β titration: 10 and 13 and 15
[2]; FC-A + CY compound, 14-3-3β concentration 4.88281e-7 M
  Fluorescence polarization signal, 14-3-3β titration: 23 and 24 and 20
[2]; FC-A + CY compound, 14-3-3β concentration 9.76563e-7 M
  Fluorescence polarization signal, 14-3-3β titration: 41 and 39 and 35
[2]; FC-A + CY compound, 14-3-3β concentration 1.95313e-6 M
  Fluorescence polarization signal, 14-3-3β titration: 58 and 54 and 52
[2]; FC-A + CY compound, 14-3-3β concentration 3.90625e-6 M
  Fluorescence polarization signal, 14-3-3β titration: 74 and 73 and 71
[2]; FC-A + CY compound, 14-3-3β concentration 7.8125e-6 M
  Fluorescence polarization signal, 14-3-3β titration: 91 and 96 and 92
[2]; FC-A + CY compound, 14-3-3β concentration 1.5625e-5 M
  Fluorescence polarization signal, 14-3-3β titration: 115 and 114
[2]; FC-A + CY compound, 14-3-3β concentration 3.125e-5 M
  Fluorescence polarization signal, 14-3-3β titration: 128 and 129 and 126
[2]; FC-A + CY compound, 14-3-3β concentration 6.25e-5 M
  Fluorescence polarization signal, 14-3-3β titration: 141 and 144
[2]; FC-A + CY compound, 14-3-3β concentration 0.000125 M
  Fluorescence polarization signal, 14-3-3β titration: 157 and 153 and 158
[2]; FC-A + CY compound, 14-3-3β concentration 0.00025 M
  Fluorescence polarization signal, 14-3-3β titration: 160 and 164
[2]; FC-A + CY compound, 14-3-3β concentration 0.0005 M
  Fluorescence polarization signal, 14-3-3β titration: 175 and 174

## NCCCCC1NCc2ccccc2Sc2ccccc2CNC(=O)C(Cc2cccc(Cl)c2)NC(=O)C(Cc2ccc(O)cc2)NC1=O (stereo not drawn) [CY007288]
[1]
  EC50: False positive
[1]; compound 476.8 pM
  FP signal: 6
[1]; compound 953.7 pM
  FP signal: 6
[1]; compound 1.90735e-9 M
  FP signal: 5
[1]; compound 3.8147e-9 M
  FP signal: 4
[1]; compound 7.6294e-9 M
  FP signal: 7
[1]; compound 1.52588e-8 M
  FP signal: 6
[1]; compound 3.05176e-8 M
  FP signal: 5
[1]; compound 6.10352e-8 M
  FP signal: 4
[1]; compound 1.2207e-7 M
  FP signal: 4
[1]; compound 2.44141e-7 M
  FP signal: 5
[1]; compound 4.88281e-7 M
  FP signal: 6
[1]; compound 9.76563e-7 M
  FP signal: 6
[1]; compound 1.95313e-6 M
  FP signal: 5
[1]; compound 3.90625e-6 M
  FP signal: 8
[1]; compound 7.8125e-6 M
  FP signal: 9
[1]; compound 1.5625e-5 M
  FP signal: 16
[1]; compound 3.125e-5 M
  FP signal: 30
[1]; compound 6.25e-5 M
  FP signal: 55
[1]; compound 0.000125 M
  FP signal: 97
[1]; compound 0.00025 M
  FP signal: 149
[1]; compound 0.0005 M
  FP signal: 194
[1]; compound 0.001 M
  FP signal: 224

## NCCCC1NCc2ccccc2Sc2ccccc2CNC(=O)C(Cc2c[nH]c3ccccc23)NC(=O)C(Cc2ccccc2)NC1=O (stereo not drawn) [CY007345]
[1]
  EC50: False positive
[1]; compound 476.8 pM
  FP signal: 5
[1]; compound 953.7 pM
  FP signal: 5
[1]; compound 1.90735e-9 M
  FP signal: 4
[1]; compound 3.8147e-9 M
  FP signal: 7
[1]; compound 7.6294e-9 M
  FP signal: 5
[1]; compound 1.52588e-8 M
  FP signal: 4
[1]; compound 3.05176e-8 M
  FP signal: 4
[1]; compound 6.10352e-8 M
  FP signal: 7
[1]; compound 1.2207e-7 M
  FP signal: 6
[1]; compound 2.44141e-7 M
  FP signal: 5
[1]; compound 4.88281e-7 M
  FP signal: 6
[1]; compound 9.76563e-7 M
  FP signal: 7
[1]; compound 1.95313e-6 M
  FP signal: 8
[1]; compound 3.90625e-6 M
  FP signal: 14
[1]; compound 7.8125e-6 M
  FP signal: 28
[1]; compound 1.5625e-5 M
  FP signal: 52
[1]; compound 3.125e-5 M
  FP signal: 90
[1]; compound 6.25e-5 M
  FP signal: 137
[1]; compound 0.000125 M
  FP signal: 191
[1]; compound 0.00025 M
  FP signal: 224
[1]; compound 0.0005 M
  FP signal: 238
[1]; compound 0.001 M
  FP signal: 248
